Reference: patent US8697747B2, “Enhancing coagulation or reducing fibrinolysis” (THe UAB Research Foundation, priority 2009, dated 2014)

Tested on: PAI-1 deficient plasma
Test: CLSM thrombelastography with tPA, PAI-1 deficient plasma
Format: biochemical, human
Details: 100 μM CORM-2, tPA 100 IU/mL, median, n=8
Method: Pooled normal plasma (George King Bio-Medical, Overland Park, Kans.) anticoagulated with sodium citrate was utilized for experimentation. […] Factor XIII (FXIII) deficient plasma anticoagulated with sodium citrate was also obtained from the same vendor.
Plasma Sample Composition. The final volume for all subsequently described plasma sample mixtures was 359.4 μL. Sample composition consisted of 316 μL of plasma; 10 μL of tissue factor (0.1% final concentration in 0.9% NaCl; Diagnostica Stago, Asnieres, France), 3.6 μL of dimethyl sulfoxide (DMSO) or DMSO with CORM-2 (Sigma-Aldrich, St. Louis, Mo.) or DMSO with inactivated CORM-2 (iCORM-2), 10 μL of tissue-type plasminogen activator (tPA, 580 U/μg, Genentech, Inc., San Francisco, Calif.) diluted with 10 mM potassium phosphate buffer (pH 7.4) for a final activity of 100 IU/mL, and 20 μL of 200 mM CaCl2. […] This concentration of CORM-2 was chosen because the concentration of CO released would be expected to be in the mid to lower ranges used in previously reported ex vivo, in vitro, and cell-based experiments (Motterlini et al. 2002; Megias et al. 2007; Chlopicki et al. 2006; Dong et al. 2008). […] (Motterlini et al. 2005). While CORM-2 decays slowly in DMSO, DMSO was added to the dry compound just prior to placement into the plasma mixture. The specific series of experiments are subsequently presented.
Assessment of the Effects of CORM-2 on CLSM Parameters in FXIII, PAI-1, TAFI and α2-antiplasmin Deficient Plasmas. These experiments were performed to elucidate the roles played by antifibrinolytic enzymes during CORM-2 mediated modulation of fibrinolysis. Samples of the various deficient plasmas were exposed to 0 or 100 μM of CORM-2 (n=8 per condition). Samples underwent CLSM analyses as subsequently described.
Clot Lifespan Model Analyses. As described in Example 1, plasma sample mixtures were placed in a disposable cup in a computer-controlled THROMBELASTOGRAPH® hemostasis system (Model 5000, Haemoscope Corp., Niles, Ill.), with addition of CaCl2 as the last step to initiate clotting. Data were collected until clot lysis time occurred. […] As this model involves complete fibrinolysis, TTG is equivalent to ACL, so ACL was not presented as it provides no additional information.
Statistical Analyses. Data are presented as median (1st, 3rd quartiles). […] Nonlinear and linear analyses and curve fitting of the various CORM-2 concentrations effects on CLSM variables were performed with commercially available software (SigmaPlot 11.0, Systat Software, Inc., San Jose, Calif.). Analyses of the effects of CORM-2 and iCORM-2 on CLSM variables in normal plasma were conducted with Kruskal-Wallis one way analysis of variance on ranks, whereas Mann-Whitney rank sum tests were used to assess the effects of CORM-2 on CLSM variables in the various immunodepleted/congenitally deficient plasma types (SigmaStat 3.1, Systat Software, Inc., San Jose, Calif.). Graphical representation of the data was generated with commercially available software (SigmaPlot 11.0, Systat Software, Inc., San Jose, Calif.; CorelDRAW 12.0, Corel Corporation, Ottawa, Ontario, Canada; Origin 7.5, OriginLab Corp., Northampton, Mass.). A P value of <0.05 was considered significant.

## [C-]#[O+].[C-]#[O+].[C-]#[O+].[C-]#[O+].[C-]#[O+].[C-]#[O+].[Cl][Ru][Cl].[Cl][Ru][Cl] [CORM-2, tricarbonyldichlororuthenium (II) dimer]
  CGT (clot growth time): 500 s
  CLS (clot lifespan): 1565 s
  CLT (clot lysis time): 1070 s
  MRL (maximum rate of lysis): −2.2 -dynes/cm^2/sec
  MRTG (maximum rate of thrombus generation): 9.4 dynes/cm^2/sec
  TMRL (time to maximum rate of lysis): 750 s
  TMRTG (time to maximum rate of thrombus generation): 160 s
  TTG (total thrombus generation): 228 dynes/cm^2
